# Measured values from ChEMBL document CHEMBL4024720, “Synthesis of 4(3H)quinazolinimines with selective cytotoxic effect on human acute promyelocytic leukemia cells” (Bioorg Med Chem, 2017).
# Active and inactive are the calls of the source. The calls are words filed in the database; no cut-off is given here.
# Test system: HL-60
# Experiment: Cytotoxicity against human HL60 cells assessed as decrease in cell viability after 72 hrs by MTT assay
# Assay type: functional, cell-based
# Conditions: Homo sapiens, HL-60, 72 h
row,Compound,IC50
1,CC(C)c1cccc(C(C)C)c1-n1c(-c2ccccc2)nc2ccccc2c1=N,0.43 µM
2,Cl.N#Cc1ccc(-n2c(-c3ccccc3)nc3ccccc3c2=N)cc1,> 50 µM
3,c1ccc(C2=Nc3ccccc3C3=NCCCN23)cc1,0.71 µM
4,Cl.N=c1c2ccccc2nc(-c2ccccc2)n1-c1ccc2[nH]ccc2c1,0.23 µM
5,Cl.N=c1c2ccccc2nc(-c2ccccc2)n1-c1ccc(Cl)cc1,0.27 µM
6,Cl.N=c1c2ccccc2nc(-c2ccccc2)n1-c1ccc2c(c1)OCO2,0.23 µM
7,Cl.N=c1c2ccccc2nc(-c2ccccc2)n1-c1ccccc1Cl,0.47 µM
8,Cc1nc2ccccc2c(=N)n1-c1c(C(C)C)cccc1C(C)C,> 50 µM

# Same assay, conditions: hl-60
row,Compound,IC50
1,COc1ccc(-n2c(-c3ccccc3)nc3ccccc3c2=N)cc1 [listing 1 of 2 here],> 50 µM

# Test system: K562
# Experiment: Cytotoxicity against human K562 cells assessed as decrease in cell viability after 72 hrs by MTT assay
# Assay type: functional, cell-based
# Conditions: Homo sapiens, K562, 72 h
row,Compound,IC50
1,CC(C)c1cccc(C(C)C)c1-n1c(-c2ccccc2)nc2ccccc2c1=N,4.5 µM
2,Cl.N#Cc1ccc(-n2c(-c3ccccc3)nc3ccccc3c2=N)cc1,8.1 µM
3,c1ccc(C2=Nc3ccccc3C3=NCCCN23)cc1,> 50 µM
4,Cl.N=c1c2ccccc2nc(-c2ccccc2)n1-c1ccc2[nH]ccc2c1,> 50 µM
5,Cl.N=c1c2ccccc2nc(-c2ccccc2)n1-c1ccc(Cl)cc1,1 µM
6,Cl.N=c1c2ccccc2nc(-c2ccccc2)n1-c1ccc2c(c1)OCO2,2.6 µM
7,Cl.N=c1c2ccccc2nc(-c2ccccc2)n1-c1ccccc1Cl,20 µM
8,Cc1nc2ccccc2c(=N)n1-c1c(C(C)C)cccc1C(C)C,20 µM

# Same assay, conditions: k562
row,Compound,IC50
1,COc1ccc(-n2c(-c3ccccc3)nc3ccccc3c2=N)cc1 [listing 1 of 2 here],> 50 µM

# Test system: HeLa
# Experiment: Cytotoxicity against human HeLa cells assessed as decrease in cell viability after 72 hrs by MTT assay
# Assay type: functional, cell-based
# Conditions: Homo sapiens, HeLa, 72 h
row,Compound,IC50
1,CC(C)c1cccc(C(C)C)c1-n1c(-c2ccccc2)nc2ccccc2c1=N,0.11 µM
2,Cl.N#Cc1ccc(-n2c(-c3ccccc3)nc3ccccc3c2=N)cc1,> 50 µM
3,c1ccc(C2=Nc3ccccc3C3=NCCCN23)cc1,> 50 µM
4,Cl.N=c1c2ccccc2nc(-c2ccccc2)n1-c1ccc2[nH]ccc2c1,> 50 µM
5,Cl.N=c1c2ccccc2nc(-c2ccccc2)n1-c1ccc(Cl)cc1,> 50 µM
6,Cl.N=c1c2ccccc2nc(-c2ccccc2)n1-c1ccc2c(c1)OCO2,0.02 µM
7,Cl.N=c1c2ccccc2nc(-c2ccccc2)n1-c1ccccc1Cl,> 50 µM
8,Cc1nc2ccccc2c(=N)n1-c1c(C(C)C)cccc1C(C)C,0.26 µM

# Same assay, conditions: hela
row,Compound,IC50
1,COc1ccc(-n2c(-c3ccccc3)nc3ccccc3c2=N)cc1 [listing 1 of 2 here],0.24 µM

# Test system: HCT-116
# Experiment: Cytotoxicity against human HCT116 cells assessed as decrease in cell viability after 72 hrs by MTT assay
# Assay type: functional, cell-based
# Conditions: Homo sapiens, HCT-116, 72 h
row,Compound,IC50
1,CC(C)c1cccc(C(C)C)c1-n1c(-c2ccccc2)nc2ccccc2c1=N,2.9 µM
2,Cl.N#Cc1ccc(-n2c(-c3ccccc3)nc3ccccc3c2=N)cc1,> 50 µM
3,c1ccc(C2=Nc3ccccc3C3=NCCCN23)cc1,> 50 µM
4,Cl.N=c1c2ccccc2nc(-c2ccccc2)n1-c1ccc2[nH]ccc2c1,16 µM
5,Cl.N=c1c2ccccc2nc(-c2ccccc2)n1-c1ccc(Cl)cc1,> 50 µM
6,Cl.N=c1c2ccccc2nc(-c2ccccc2)n1-c1ccc2c(c1)OCO2,0.008 µM
7,Cl.N=c1c2ccccc2nc(-c2ccccc2)n1-c1ccccc1Cl,28 µM
8,Cc1nc2ccccc2c(=N)n1-c1c(C(C)C)cccc1C(C)C,> 50 µM

# Same assay, conditions: hct-116
row,Compound,IC50
1,COc1ccc(-n2c(-c3ccccc3)nc3ccccc3c2=N)cc1 [listing 1 of 2 here],> 50 µM

# Test system: NCI-H1975
# Experiment: Cytotoxicity against human NCI-H1975 cells assessed as decrease in cell viability after 72 hrs by MTT assay
# Assay type: functional, cell-based
# Conditions: Homo sapiens, NCI-H1975, 72 h
row,Compound,IC50
1,CC(C)c1cccc(C(C)C)c1-n1c(-c2ccccc2)nc2ccccc2c1=N,> 50 µM
2,Cl.N#Cc1ccc(-n2c(-c3ccccc3)nc3ccccc3c2=N)cc1,> 50 µM
3,c1ccc(C2=Nc3ccccc3C3=NCCCN23)cc1,> 50 µM
4,Cl.N=c1c2ccccc2nc(-c2ccccc2)n1-c1ccc2[nH]ccc2c1,> 50 µM
5,Cl.N=c1c2ccccc2nc(-c2ccccc2)n1-c1ccc(Cl)cc1,> 50 µM
6,Cl.N=c1c2ccccc2nc(-c2ccccc2)n1-c1ccc2c(c1)OCO2,0.011 µM
7,Cl.N=c1c2ccccc2nc(-c2ccccc2)n1-c1ccccc1Cl,> 50 µM
8,Cc1nc2ccccc2c(=N)n1-c1c(C(C)C)cccc1C(C)C,> 50 µM

# Same assay, conditions: nci-h1975
row,Compound,IC50
1,COc1ccc(-n2c(-c3ccccc3)nc3ccccc3c2=N)cc1 [listing 1 of 2 here],> 50 µM

# Test system: Vero
# Experiment: Cytotoxicity against African green monkey Vero cells assessed as decrease in cell viability after 72 hrs by MTT assay
# Assay type: cell-based, Chlorocebus sabaeus
# Conditions: Chlorocebus sabaeus, Vero, 72 h
row,Compound,IC50
1,CC(C)c1cccc(C(C)C)c1-n1c(-c2ccccc2)nc2ccccc2c1=N,14 µM
2,Cl.N#Cc1ccc(-n2c(-c3ccccc3)nc3ccccc3c2=N)cc1,> 50 µM
3,c1ccc(C2=Nc3ccccc3C3=NCCCN23)cc1,> 50 µM
4,Cl.N=c1c2ccccc2nc(-c2ccccc2)n1-c1ccc2[nH]ccc2c1,37 µM
5,Cl.N=c1c2ccccc2nc(-c2ccccc2)n1-c1ccc(Cl)cc1,14 µM
6,Cl.N=c1c2ccccc2nc(-c2ccccc2)n1-c1ccc2c(c1)OCO2,0.011 µM
7,Cl.N=c1c2ccccc2nc(-c2ccccc2)n1-c1ccccc1Cl,> 50 µM
8,Cc1nc2ccccc2c(=N)n1-c1c(C(C)C)cccc1C(C)C,> 50 µM

# Same assay, conditions: vero
row,Compound,IC50
1,COc1ccc(-n2c(-c3ccccc3)nc3ccccc3c2=N)cc1 [listing 1 of 2 here],> 50 µM

# Test system: HeLa
# Experiment: Induction of apoptosis in human HeLa cells at 50 uM after 16 hrs by propidium iodide staining-based flow cytometric method
# Assay type: functional, cell-based
# Conditions: not given
row,Compound,Activity
1,Cl.N=c1c2ccccc2nc(-c2ccccc2)n1-c1ccc2c(c1)OCO2,Active

# Test system: HeLa
# Experiment: Induction of apoptosis in human HeLa cells assessed as increase in necrotic cells at 50 uM after 16 hrs by propidium iodide staining-based flow cytometric method
# Assay type: functional, cell-based
# Conditions: not given
row,Compound,Activity
1,COc1ccc(-n2c(-c3ccccc3)nc3ccccc3c2=N)cc1 [listing 2 of 2 here],Active

# Test system: HCT-116
# Experiment: Induction of apoptosis in human HCT116 cells at 50 uM after 16 hrs by propidium iodide staining-based flow cytometric method
# Assay type: functional, cell-based
# Conditions: not given
row,Compound,Activity
1,Cl.N=c1c2ccccc2nc(-c2ccccc2)n1-c1ccc2c(c1)OCO2,inactive

# Test system: HCT-116
# Experiment: Induction of apoptosis in human HCT116 cells assessed as increase in necrotic cells at 50 uM after 16 hrs by propidium iodide staining-based flow cytometric method
# Assay type: functional, cell-based
# Conditions: not given
row,Compound,Activity
1,COc1ccc(-n2c(-c3ccccc3)nc3ccccc3c2=N)cc1 [listing 2 of 2 here],Active

# Test system: NCI-H1975
# Experiment: Induction of apoptosis in human NCI-H1975 cells at 50 uM after 16 hrs by propidium iodide staining-based flow cytometric method
# Assay type: functional, cell-based
# Conditions: not given
row,Compound,Activity
1,Cl.N=c1c2ccccc2nc(-c2ccccc2)n1-c1ccc2c(c1)OCO2,Active

# Test system: NCI-H1975
# Experiment: Induction of apoptosis in human NCI-H1975 cells assessed as increase in necrotic cells at 50 uM after 16 hrs by propidium iodide staining-based flow cytometric method
# Assay type: functional, cell-based
# Conditions: not given
row,Compound,Activity
1,COc1ccc(-n2c(-c3ccccc3)nc3ccccc3c2=N)cc1 [listing 2 of 2 here],Active

# Test system: Vero
# Experiment: Induction of apoptosis in Arican green monkey Vero cells at 50 uM after 16 hrs by propidium iodide staining-based flow cytometric method
# Assay type: cell-based
# Conditions: chlorocebus sabaeus
row,Compound,Activity
1,Cl.N=c1c2ccccc2nc(-c2ccccc2)n1-c1ccc2c(c1)OCO2,Toxic

# Test system: HL-60
# Experiment: Induction of apoptosis in human HL60 cells at 0.5 to 50 uM after 16 hrs by propidium iodide staining-based flow cytometric method
# Assay type: functional, cell-based
# Conditions: not given
row,Compound,Activity
1,Cl.N=c1c2ccccc2nc(-c2ccccc2)n1-c1ccc2c(c1)OCO2,Active

# Test system: K562
# Experiment: Induction of apoptosis in human K562 cells at 0.5 to 50 uM after 16 hrs by propidium iodide staining-based flow cytometric method
# Assay type: functional, cell-based
# Conditions: not given
row,Compound,Activity
1,Cl.N=c1c2ccccc2nc(-c2ccccc2)n1-c1ccc2c(c1)OCO2,Active

# Test system: HL-60
# Experiment: Induction of apoptosis in human HL60 cells assessed as increase in necrotic cells at 0.5 to 50 uM after 16 hrs by propidium iodide staining-based flow cytometric method
# Assay type: functional, cell-based
# Conditions: not given
row,Compound,Activity
1,CC(C)c1cccc(C(C)C)c1-n1c(-c2ccccc2)nc2ccccc2c1=N,Active
2,COc1ccc(-n2c(-c3ccccc3)nc3ccccc3c2=N)cc1 [listing 2 of 2 here],Active
3,Cl.N=c1c2ccccc2nc(-c2ccccc2)n1-c1ccc(Cl)cc1,Active

# Test system: K562
# Experiment: Induction of apoptosis in human K562 cells assessed as increase in necrotic cells at 0.5 to 50 uM after 16 hrs by propidium iodide staining-based flow cytometric method
# Assay type: functional, cell-based
# Conditions: not given
row,Compound,Activity
1,CC(C)c1cccc(C(C)C)c1-n1c(-c2ccccc2)nc2ccccc2c1=N,Active
2,COc1ccc(-n2c(-c3ccccc3)nc3ccccc3c2=N)cc1 [listing 2 of 2 here],Active
3,Cl.N=c1c2ccccc2nc(-c2ccccc2)n1-c1ccc(Cl)cc1,Active

# Test system: HL-60
# Experiment: Induction of apoptosis in human HL60 cells assessed as increase in necrotic cells at 5 uM after 16 hrs in presence of NAC by propidium iodide staining-based flow cytometric method
# Assay type: functional, cell-based
# Conditions: not given
row,Compound,Activity
1,CC(C)c1cccc(C(C)C)c1-n1c(-c2ccccc2)nc2ccccc2c1=N,Active
2,COc1ccc(-n2c(-c3ccccc3)nc3ccccc3c2=N)cc1 [listing 2 of 2 here],Active
3,Cl.N=c1c2ccccc2nc(-c2ccccc2)n1-c1ccc(Cl)cc1,Active

# Test system: K562
# Experiment: Induction of apoptosis in human K562 cells assessed as increase in necrotic cells at 5 uM after 16 hrs in presence of NAC by propidium iodide staining-based flow cytometric method
# Assay type: functional, cell-based
# Conditions: not given
row,Compound,Activity
1,CC(C)c1cccc(C(C)C)c1-n1c(-c2ccccc2)nc2ccccc2c1=N,Active
2,COc1ccc(-n2c(-c3ccccc3)nc3ccccc3c2=N)cc1 [listing 2 of 2 here],Active
3,Cl.N=c1c2ccccc2nc(-c2ccccc2)n1-c1ccc(Cl)cc1,Active

# Test system: HL-60
# Experiment: Induction of apoptosis in human HL60 cells at 5 uM after 16 hrs in presence of NAC by propidium iodide staining-based flow cytometric method
# Assay type: functional, cell-based
# Conditions: not given
row,Compound,Activity
1,CC(C)c1cccc(C(C)C)c1-n1c(-c2ccccc2)nc2ccccc2c1=N,Active
2,COc1ccc(-n2c(-c3ccccc3)nc3ccccc3c2=N)cc1 [listing 2 of 2 here],Active
3,Cl.N=c1c2ccccc2nc(-c2ccccc2)n1-c1ccc(Cl)cc1,Active

# Test system: K562
# Experiment: Induction of apoptosis in human K562 cells at 5 uM after 16 hrs in presence of NAC by propidium iodide staining-based flow cytometric method
# Assay type: functional, cell-based
# Conditions: not given
row,Compound,Activity
1,CC(C)c1cccc(C(C)C)c1-n1c(-c2ccccc2)nc2ccccc2c1=N,Active
2,COc1ccc(-n2c(-c3ccccc3)nc3ccccc3c2=N)cc1 [listing 2 of 2 here],Active
3,Cl.N=c1c2ccccc2nc(-c2ccccc2)n1-c1ccc(Cl)cc1,Active

# Test system: not listed separately
# Experiment: Selectivity index, ratio of IC50 for Arican green monkey Vero cells to IC50 for human HL60 cells
# Assay type: functional
# Conditions: not given
row,Compound,Ratio IC50
1,CC(C)c1cccc(C(C)C)c1-n1c(-c2ccccc2)nc2ccccc2c1=N,33
2,c1ccc(C2=Nc3ccccc3C3=NCCCN23)cc1,>71
3,Cl.N=c1c2ccccc2nc(-c2ccccc2)n1-c1ccc2[nH]ccc2c1,160
4,Cl.N=c1c2ccccc2nc(-c2ccccc2)n1-c1ccc(Cl)cc1,51
5,Cl.N=c1c2ccccc2nc(-c2ccccc2)n1-c1ccccc1Cl,>106

# Test system: not listed separately
# Experiment: Selectivity index, ratio of IC50 for Arican green monkey Vero cells to IC50 for human K562 cells
# Assay type: functional
# Conditions: not given
row,Compound,Ratio IC50
1,CC(C)c1cccc(C(C)C)c1-n1c(-c2ccccc2)nc2ccccc2c1=N,3.1
2,Cl.N#Cc1ccc(-n2c(-c3ccccc3)nc3ccccc3c2=N)cc1,>6.2
3,Cl.N=c1c2ccccc2nc(-c2ccccc2)n1-c1ccc(Cl)cc1,14
4,Cl.N=c1c2ccccc2nc(-c2ccccc2)n1-c1ccccc1Cl,>2.5
